Experimental data reported in patent US20230172933A1, “USE OF A COMPOUND OR COMPOSITION COMPRISING AN INHIBITOR OF NLRP1 INFLAMMASOME ACTIVATION FOR THE TREATMENT OF HUMAN AIRWAY INFLAMMATION” (Nanyang Technological University, priority 2020, published 2023).
Entries after “also recorded” stand apart in the source; their conditions may differ.

Columns and labels:
HRV16 = test: VP2 maturation in HRV16-infected NHBEs (Western blot); assay type: cell-based, HRV-A16; settings: 48 hours post inoculation, MLN4924 1 μM
Method: (A) Endogenous NLRP1, ASC and caspase-1 are indispensable for HRV16-induced IL-18 secretion in NHBEs. Cas9-control, NLRP1, ASC and CASP1 KO NHBEs were infected with HRV16 as before. Conditioned media were harvested 48 hours post-infection. (B) NLRP1 is genetically required for HRV16-induced IL-18 cleavage and ASC oligomerization. Cas9 control, NLRP1 and ASC KO NHBEs were infected with HRV16 as before. Cleaved IL-18 are marked with arrows. (C) Mutating the NLRP1 cleavage site abrogates HRV16-triggered IL-18 secretion in NHBEs. NLRP1 KO NHBEs were rescued with lentiviral constructs expressing FLAG-tagged NLRP1^WT or NLRP1^Q130A, which carried silent mutations at the PAM sites. The rescued cells were infected with HRV16 or treated with Talabostat. Conditioned media was analyzed by IL-18 ELISA. **P<0.01, ***P<0.001, n=3 replicates from one of two independent infections. (D) Q130A abrogates NLRP1 cleavage, IL-18 maturation and ASC oligomerization in NHBEs. NLRP1 KO or NLRP1^WT- or NLRP1^Q130A-rescued cells were infected with HRV16 or treated with Talabostat. Cells were harvested 48 hours post infection. […] IL-18 levels were measured with ELISA. ****, p<0.0001 (Two-way ANOVA), n=3 independent infections/treatment. […] Lysates from HRV16-infected NHBEs in FIGS. 9E-F were analyzed by Western blot 48 hours post HRV16 inoculation. […]

[1] = tested on: NLRP1 inflammasome in Talabostat-treated NHBEs; test: Talabostat-induced IL-1β and IL-18 secretion in NHBEs (ELISA); assay type: cell-based, human; settings: Talabostat 2 μM, pre-treated: MLN4924 1 μM, MCC950 5 μM, Rupintrivir 10 nM
Method: (§1) (A) Expression levels of NLRP1 vs. NLRP3 (RNAseq FKPM) in NHBEs. n=21, independent cultures of pooled NHBEs from healthy donors. (B) Expression of NLRP1 vs. NLRP3 in healthy human nasal biopsy. Puncta: positive staining by RNAscope. Nuclei staining: hematoxylin. (C) Overview of cytokine profiling of by HRV16-infected and Talabostat-treated NHBEs. (D) Cells were inoculated with HRV16 at MOI=5 and cultured at 33° C. for 48 hours. Luminex array was performed on conditioned media after removing cell debris. n=3 independent infections and treatment. Cytokines/chemokines that were induced at least 5 fold (p<0.05, Student's t test, lognormal values) are represented by square boxes. […] NHBEs were pretreated with MCC950 (5 μM) or Rupintrivir (10 nM) before HRV16 inoculation or Talabostat (2 μM) treatment. […] (G) Overview of apical HRV infection 3D human bronchial epithelial cultures. (H) Alcian blue (AB)/periodic acid-Schiff (PAS) staining of HRV16-infected (MOI=3) and Talabostat (2 μM)-treated 3D human bronchial epithelial cultures. (1) IL-18 level in apical or basal media 48 hours post-infection or Talabostat treatment. **P<0.01, ***P<0.001, ****P<0.0001 (Two-way ANOVA). n=3 independent infected/treated cultures. (J) Secretion of cleaved IL-1β and IL-18 and ASC oligomerization in HRV16-infected primary NHBEs. Cells were inoculated with HRV16 (MOI=5) or treated with Talabostat (2 μM) for 48 hours at 33° C.
(A) Endogenous NLRP1, ASC and caspase-1 are indispensable for HRV16-induced IL-18 secretion in NHBEs. Cas9-control, NLRP1, ASC and CASP1 KO NHBEs were infected with HRV16 as before. Conditioned media were harvested 48 hours post-infection. (B) NLRP1 is genetically required for HRV16-induced IL-18 cleavage and ASC oligomerization. Cas9 control, NLRP1 and ASC KO NHBEs were infected with HRV16 as before. Cleaved IL-18 are marked with arrows. […] Conditioned media was analyzed by IL-18 ELISA. **P<0.01, ***P<0.001, n=3 replicates from one of two independent infections. […] IL-18 levels were measured with ELISA. ****, p<0.0001 (Two-way ANOVA), n=3 independent infections/treatment. […] Lysates from HRV16-infected NHBEs in FIGS. 9E-F were analyzed by Western blot 48 hours post HRV16 inoculation.
(§2) The following antibodies were used in this study: c-Myc (Santa Cruz Biotechnology #sc-40), HA tag (Santa Cruz Biotechnology, #sc-805), GAPDH (Santa Cruz Biotechnology, #sc-47724), ASC (Adipogen, #AL-177), CASP1 (Santa Cruz Biotechnology, #sc-622), IL1B (R&D systems, #AF-201), FLAG (SigmaAldrich, #F3165), GFP (Abcam, #ab290), NLRP1 (R&D systems, #AF6788), IL18 (Abcam ab207324) and VP2 (QED Bioscience, #18758). HRV16-3Cpro was detected by rabbit serum, a kind gift from Dr. Ann Palmenberg and Dr. James Gern (University of Wisconsin). […]

NLRP1 = NLRP1 self-oligomerization (BN-PAGE) and cleavage fragment (SDS-PAGE/Western blot) in 293T-NLRP1-FLAG cells transfected with HRV14-3Cpro; assay type: cell-based, human
[2] = tested on: endogenous NLRP1 inflammasome; test: Endogenous NLRP1 inflammasome in doxycycline-induced Tet-ON HRV14-3Cpro N/TERT keratinocytes; assay type: cell-based, human
NLRP1 inflammasome = test: Talabostat-induced IL-1β secretion in N/TERT keratinocytes; assay type: cell-based, human; settings: ELISA of conditioned media
[3] = tested on: NLRP1 inflammasome in HRV16-infected NHBEs; test: HRV16-induced IL-1β and IL-18 secretion in NHBEs (ELISA); assay type: cell-based, human; settings: HRV16 MOI=5, 33° C., 48 hours, pre-treated: MLN4924 1 μM, Bortezomib 1 μM, MCC950 5 μM, Rupintrivir 10 nM
Method: as §1
(A) Endogenous NLRP1, ASC and caspase-1 are indispensable for HRV16-induced IL-18 secretion in NHBEs. Cas9-control, NLRP1, ASC and CASP1 KO NHBEs were infected with HRV16 as before. Conditioned media were harvested 48 hours post-infection. (B) NLRP1 is genetically required for HRV16-induced IL-18 cleavage and ASC oligomerization. Cas9 control, NLRP1 and ASC KO NHBEs were infected with HRV16 as before. Cleaved IL-18 are marked with arrows. (C) Mutating the NLRP1 cleavage site abrogates HRV16-triggered IL-18 secretion in NHBEs. NLRP1 KO NHBEs were rescued with lentiviral constructs expressing FLAG-tagged NLRP1^WT or NLRP1^Q130A, which carried silent mutations at the PAM sites. The rescued cells were infected with HRV16 or treated with Talabostat. Conditioned media was analyzed by IL-18 ELISA. **P<0.01, ***P<0.001, n=3 replicates from one of two independent infections. (D) Q130A abrogates NLRP1 cleavage, IL-18 maturation and ASC oligomerization in NHBEs. NLRP1 KO or NLRP1^WT- or NLRP1^Q130A-rescued cells were infected with HRV16 or treated with Talabostat. Cells were harvested 48 hours post infection. Arrow: NLRP1 cleavage product in lane 8 HRV16. *: Non-specific NLRP1 degradation product that occurs right below the a.a. 131-1213 cleavage fragment. See also FIG. 3E, 5E, 5D. (E) MLN4924 and Bortezomib blocks HRV16-induced IL-18 secretion. NHBEs were pre-treated with MLN4924 (1 μM) or Bortezomib (1 μM) before HRV16 infection or Talabostat treatment. IL-18 levels were measured with ELISA. ****, p<0.0001 (Two-way ANOVA), n=3 independent infections/treatment. (F) MLN4924 and Bortezomib blocks HRV16-induced IL-1β secretion. […] Lysates from HRV16-infected NHBEs in FIGS. 9E-F were analyzed by Western blot 48 hours post HRV16 inoculation.
as §2, with “Wisconsin). Cytokine and chemokine measurements were carried out with human IL-1B ELISA kit (BD, #557953), human IL-18 ELISA kit (MBL Bioscience, #7620) and Immune Monitoring 65-Plex Human ProcartaPlex™ Panel (ThermoFisher EPX650-10065-901).” for “Wisconsin).”

human NLRP1 inflammasome = test: HRV14-3Cpro-induced ASC-GFP speck formation in 293T-ASC-GFP-NLRP1-FLAG reporter cells; assay type: cell-based; settings: 293T-ASC-GFP-NLRP1-FLAG cells transfected with HRV14-3Cpro; MLN4924 1 μM, MG132 2.5 μM, Bortezomib 0.5 μM, phenylalanine 1 mM; 24 hours
N/TERT cells = test: Mode of cell death of N/TERT cells by Annexin V and PI inclusion; assay type: cell-based, human; settings: Talabostat-treated N/TERT cells; marked by PI inclusion
Method: (A) Expression of Myc-tagged viral proteases in 293T-ASC-GFP-NLRP1-FLAG cells. Two exposure times were shown. Note that Myc-HRV16-3Cpro was lowly expressed but could activate ASC-GFP specks. (B) Representative wide-field fluorescent images of ASC-GFP specks, NLRP1-HA and Myc-tagged proteases. 293T-ASC-GFP cells were co-transfected with NLRP1-HA and Myc-tagged gZiPro, HRV14-3Cpro or HRV14-3Cpro^C146A and fixed 24 hours post transfection. (C) Validation of ASC KO in N/TERT cells. ASC KO #2 was chosen for further experiments. (E) N/TERT KO cells were transfected with the indicated 3Cpro variants and harvested 24 hours post transfection. Conditioned media was analyzed by IL-1β ELISA. **P<0.01 (Two-way ANOVA). n=3 independent transfections. (F) Modes of cell death of Talabostat-treated, or doxycycline-induced Tet-ON HRV14-3Cpro N/TERT cells assayed […] and PI inclusion. Data are representative of one of two independent experiments.
This provides a robust cellular system to determine if 3Cpros can activate the endogenous NLRP1 inflammasome. […] Live-cell imaging of human keratinocytes expressing GFP-tagged ASC further corroborated that HRV14-3Cpro could induce ASC-GFP speck formation (FIG. 1F). […]

human NLRP1 = test: ASC-GFP speck formation in 293T-ASC-GFP-NLRP1-FLAG cells after Talabostat treatment; assay type: cell-based; settings: Talabostat 2 μM, 24 hrs, compared to vector-transfected cells
[4] = tested on: 3D human bronchial epithelial cultures; test: Talabostat treatment of 3D human bronchial epithelial cultures; assay type: cell-based; settings: Talabostat 2 μM
Method: as §1, with “Cells were inoculated with HRV16 (MOI=5) or treated with Talabostat (2 μM) for 48 hours at 33° C.” left out

NHBEs = test: Cytokine response of Talabostat-treated NHBEs (Luminex array, ELISA); assay type: cell-based, human
Method: (A) Expression levels of NLRP1 vs. NLRP3 (RNAseq FKPM) in NHBEs. n=21, independent cultures of pooled NHBEs from healthy donors. (B) Expression of NLRP1 vs. NLRP3 in healthy human nasal biopsy. Puncta: positive staining by RNAscope. Nuclei staining: hematoxylin. (C) Overview of cytokine profiling of by HRV16-infected and Talabostat-treated NHBEs. (D) Cells were inoculated with HRV16 at MOI=5 and cultured at 33° C. for 48 hours. Luminex array was performed on conditioned media after removing cell debris. n=3 independent infections and treatment. Cytokines/chemokines that were induced at least 5 fold (p<0.05, Student's t test, lognormal values) are represented by square boxes. […] NHBEs were pretreated with MCC950 (5 μM) or Rupintrivir (10 nM) before HRV16 inoculation or Talabostat (2 μM) treatment. […]
as §2

Compound | accumulation of mature capsid protein VP2 (3Cpro-dependent VP2 maturation) (HRV16) | Talabostat-induced IL-1β secretion [1] | Talabostat-induced IL-18 secretion [1] | stabilization of the post-cleavage NLRP1 fragment (a.a. 131-1213) (NLRP1; 293T-NLRP1-FLAG cells transfected with HRV14-3Cpro, Western blot) | HRV14-3Cpro-induced NLRP1 self-oligomerization (NLRP1; 293T-NLRP1-FLAG cells, BN-PAGE, drugs for 24 hours, MG132 2.5 μM) | ASC oligomerization upon HRV14-3Cpro induction ([2]; doxycycline 24 hours) | mature IL-1β secretion upon HRV14-3Cpro induction ([2]; doxycycline 24 hours, Western blot, ELISA) | endogenous 3Cpro-induced NLRP1 inflammasome and pyroptosis ([2]; doxycycline with drug for 24 hours) | stabilization of the post-cleavage NLRP1 fragment ([2]; fragment below detection limit in untreated cells) | Talabostat-induced IL-1β secretion (NLRP1 inflammasome) | HRV16-induced IL-1β secretion [3] | HRV16-induced IL-18 secretion [3] | HRV14-3Cpro-induced ASC-GFP speck formation (human NLRP1 inflammasome) | mode of cell death (N/TERT cells) | percentage of cells forming ASC-GFP specks (human NLRP1) | epithelium morphology (Alcian blue/PAS staining) [4] | IL-18 level in apical or basal media ([4]; 48 hours) | IL-1β secretion (NHBEs; ELISA) | IL-18 induction (cytokine profiling) (NHBEs; Luminex array on conditioned media)
NS(=O)(=O)OC[C@@H]1C[C@@H](n2ccc3c(N[C@H]4CCc5ccccc54)ncnc32)C[C@@H]1O [MLN4924, ((1S,2S,4R)-4-(4-(((S)-2,3-dihydro-1H-inden-1-yl)amino)-7H-pyrrolo[2,3-d]pyrimidin-7-yl)-2-hydroxycyclopentyl)methyl sulfamate] | did not affect; also recorded: does not affect | only had a modest effect | did not affect | led to the stabilization | similarly blocked; also recorded: inhibits | completely blocked | completely blocked | inhibits | stabilized | much less dramatic effect | completely blocked; also recorded: blocks | completely blocked; also recorded: blocks | blocked; also recorded: abrogate | – | – | – | – | – | –
CC(C)[C@H](N)C(=O)N1CCC[C@H]1B(O)O [Talabostat] | – | – | – | – | – | – | – | – | – | – | – | – | – | exclusively caused lytic cell death | significant increase | significant disruption of the epithelium, increased mucin production and goblet cell engorgement | led to IL-18 secretion in both the apical and basal media | significantly secreted | most highly induced cytokine
